Values quoted from earlier work as cited in paper PMC7449217, “The FDA-Approved Drug Nelfinavir Inhibits Lytic Cell-Free but Not Cell-Associated Nonlytic Transmission of Human Adenovirus” (Antimicrobial Agents and Chemotherapy, 2020).
Where two headings read alike, the source gives them in different places.

Key:
HAdV-C2-dE3B-GFP = test system: HAdV-C2-dE3B-GFP; parameters: method as in earlier work; conditions: A549, 1.25 μM compound, normalized to neg. ctr., cited from earlier work
A549 cells = conditions: cited from earlier work

SMILES	Normalized mean read-outs: Infected nuclei (HAdV-C2-dE3B-GFP; analysis EPFL)	Normalized mean read-outs: Infection index (HAdV-C2-dE3B-GFP; analysis EPFL)	Normalized mean read-outs: Nuclei (HAdV-C2-dE3B-GFP; analysis EPFL)	Normalized mean read-outs: Plaques (HAdV-C2-dE3B-GFP; analysis EPFL)	Normalized mean read-outs: Virus intensity (HAdV-C2-dE3B-GFP; analysis EPFL)	Normalized mean read-outs: Infected nuclei (HAdV-C2-dE3B-GFP; analysis UZH)	Normalized mean read-outs: Infection index (HAdV-C2-dE3B-GFP; analysis UZH)	Normalized mean read-outs: Nuclei (HAdV-C2-dE3B-GFP; analysis UZH)	Normalized mean read-outs: Plaques (HAdV-C2-dE3B-GFP; analysis UZH)	Normalized mean read-outs: Virus intensity (HAdV-C2-dE3B-GFP; analysis UZH)	Toxic (A549 cells)
Cc1cn([C@H]2C[C@H](F)[C@@H](CO)O2)c(=O)[nH]c1=O [3'-deoxy-3'-fluorothymidine]	0.12	0.17	0.70	0.00148	0.32 AU	0.13	0.15	0.83	0.00429	0.30 AU	no
Cc1cc(N)c2ccccc2[n+]1CCCCCCCCCC[n+]1c(C)cc(N)c2ccccc21 [Dequalinium dichloride]	0.33	0.46	0.71	0.44	0.38 AU	0.49	0.62	0.79	0.51	0.37 AU	yes
Nc1c2ccccc2nc2ccccc12 [Aminacrine]	0.60	0.42	1.42	0.67	0.51 AU	0.53	0.62	0.87	0.75	0.50 AU	no
CCCCCCCCCCCCCCCC[N+](C)(C)CCN(Cc1ccc(OC)cc1)c1ncccn1 [Thonzonium bromide]	0.45	0.56	0.81	0.56	0.50 AU	0.54	0.63	0.84	0.54	0.49 AU	–
